# Experimental data: publication doi:10.1101/2023.10.03.560722, “Drug Discovery in Low Data Regimes: Leveraging a Computational Pipeline for the Discovery of Novel SARS-CoV-2 Nsp14-MTase Inhibitors” (bioRxiv, 2024)
# Read-outs that look alike come from different tables or passages of the source.
# Columns and labels:
# Type in all cases: biochemical
# [1] = target: PRMT6 (Homo sapiens, UniProt Q96LA8); test: human MTase selectivity panel
# [2] = target: DOT1L (Homo sapiens, UniProt Q8TEK3); test: human MTase selectivity panel
# [3] = target: T1, SUV39H1 (Homo sapiens, UniProt O43463); test: human MTase selectivity panel
# T1 sequence (O43463 1-412): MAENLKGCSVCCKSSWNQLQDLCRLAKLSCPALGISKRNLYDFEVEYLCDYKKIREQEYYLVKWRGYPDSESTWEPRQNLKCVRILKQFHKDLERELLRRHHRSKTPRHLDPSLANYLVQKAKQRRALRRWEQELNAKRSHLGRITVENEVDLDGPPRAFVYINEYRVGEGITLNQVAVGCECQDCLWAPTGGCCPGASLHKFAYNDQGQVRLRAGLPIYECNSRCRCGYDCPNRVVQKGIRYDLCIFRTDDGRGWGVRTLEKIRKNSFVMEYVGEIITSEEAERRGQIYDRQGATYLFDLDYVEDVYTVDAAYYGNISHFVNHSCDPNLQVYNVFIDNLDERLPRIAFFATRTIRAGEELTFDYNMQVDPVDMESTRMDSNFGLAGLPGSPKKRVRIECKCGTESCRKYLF
# [4] = target: ASH1L (Homo sapiens, UniProt Q9NR48); test: human MTase selectivity panel
# [5] = target: human RNMT (N7 guanosine RNA methyltransferase) (Homo sapiens, UniProt O43148); test: RNMT activity inhibition (selectivity)
# [6] = target: SARS-CoV-2 nsp14 MTase (Severe acute respiratory syndrome coronavirus 2, UniProt P0DTD1); test: biochemical
# [7] = target: PRMT5 (Homo sapiens, UniProt O14744); test: human MTase selectivity panel
# [8] = target: SUV39H2 (Homo sapiens, UniProt Q9H5I1); test: human MTase selectivity panel
# [9] = target: PRMT8 (Homo sapiens, UniProt Q9NR22); test: human MTase selectivity panel
# [10] = target: SETD2 (Homo sapiens, UniProt Q9BYW2); test: human MTase selectivity panel
# [11] = target: T2, BCDIN3D (Homo sapiens, UniProt Q7Z5W3); test: human MTase selectivity panel
# T2 sequence (Q7Z5W3 1-292): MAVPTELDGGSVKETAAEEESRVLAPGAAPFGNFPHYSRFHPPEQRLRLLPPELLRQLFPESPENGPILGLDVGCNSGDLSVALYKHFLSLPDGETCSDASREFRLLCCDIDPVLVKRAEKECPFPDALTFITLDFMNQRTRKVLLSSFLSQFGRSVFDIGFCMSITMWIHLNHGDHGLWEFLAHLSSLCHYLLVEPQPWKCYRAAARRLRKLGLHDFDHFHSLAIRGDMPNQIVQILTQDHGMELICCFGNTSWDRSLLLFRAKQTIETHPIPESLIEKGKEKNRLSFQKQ
# [12] = target: EZH2 (Homo sapiens, UniProt Q15910); test: human MTase selectivity panel
# [13] = average ± SD, read-out: Activity (%) at 10 µM Average
# [14] = read-out: Activity (%) at 10 µM Replicate 1
# [15] = read-out: Activity (%) at 10 µM Replicate 2
# [16] = read-out: Activity (%) at 10 µM Replicate 3
# Chain of DOT1L (Q8TEK3 whole entry): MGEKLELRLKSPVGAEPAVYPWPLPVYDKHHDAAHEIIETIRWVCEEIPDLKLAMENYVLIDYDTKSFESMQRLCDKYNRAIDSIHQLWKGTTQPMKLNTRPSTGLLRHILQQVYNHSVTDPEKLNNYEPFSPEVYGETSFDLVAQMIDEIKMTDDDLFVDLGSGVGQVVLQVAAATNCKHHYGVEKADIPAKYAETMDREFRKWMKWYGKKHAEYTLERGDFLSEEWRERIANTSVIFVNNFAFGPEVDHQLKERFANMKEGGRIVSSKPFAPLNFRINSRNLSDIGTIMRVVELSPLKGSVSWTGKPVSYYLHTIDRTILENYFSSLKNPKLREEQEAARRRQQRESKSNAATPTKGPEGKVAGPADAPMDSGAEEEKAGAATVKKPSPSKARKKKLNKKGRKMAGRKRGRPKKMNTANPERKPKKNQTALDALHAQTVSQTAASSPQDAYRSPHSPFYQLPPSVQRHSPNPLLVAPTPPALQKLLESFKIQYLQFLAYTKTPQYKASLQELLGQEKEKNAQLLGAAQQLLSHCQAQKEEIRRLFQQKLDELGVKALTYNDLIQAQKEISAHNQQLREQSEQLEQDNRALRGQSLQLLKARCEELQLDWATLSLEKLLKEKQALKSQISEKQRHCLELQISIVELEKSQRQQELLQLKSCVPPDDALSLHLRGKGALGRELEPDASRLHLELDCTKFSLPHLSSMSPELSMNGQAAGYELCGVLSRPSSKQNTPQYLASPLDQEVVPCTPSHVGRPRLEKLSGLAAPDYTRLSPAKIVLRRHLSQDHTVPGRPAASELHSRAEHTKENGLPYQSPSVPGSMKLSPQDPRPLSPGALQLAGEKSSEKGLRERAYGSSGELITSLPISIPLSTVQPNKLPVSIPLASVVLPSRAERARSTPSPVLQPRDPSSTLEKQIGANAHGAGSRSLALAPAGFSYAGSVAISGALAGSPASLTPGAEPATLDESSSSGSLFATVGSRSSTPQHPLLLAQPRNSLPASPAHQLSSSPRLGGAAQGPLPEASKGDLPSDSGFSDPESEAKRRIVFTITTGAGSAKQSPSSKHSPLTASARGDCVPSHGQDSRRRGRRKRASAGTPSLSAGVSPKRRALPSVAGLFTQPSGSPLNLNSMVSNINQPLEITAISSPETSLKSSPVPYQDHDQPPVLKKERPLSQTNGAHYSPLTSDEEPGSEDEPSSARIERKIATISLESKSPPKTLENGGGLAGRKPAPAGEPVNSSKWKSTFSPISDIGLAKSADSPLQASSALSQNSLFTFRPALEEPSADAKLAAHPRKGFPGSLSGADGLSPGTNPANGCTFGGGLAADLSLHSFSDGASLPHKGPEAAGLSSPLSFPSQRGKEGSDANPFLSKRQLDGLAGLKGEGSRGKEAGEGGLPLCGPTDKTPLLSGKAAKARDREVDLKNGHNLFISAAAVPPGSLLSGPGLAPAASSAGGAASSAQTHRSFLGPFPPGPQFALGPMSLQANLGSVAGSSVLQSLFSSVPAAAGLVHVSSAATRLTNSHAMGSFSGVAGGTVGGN
# Chain of PRMT6 (Q96LA8 whole entry): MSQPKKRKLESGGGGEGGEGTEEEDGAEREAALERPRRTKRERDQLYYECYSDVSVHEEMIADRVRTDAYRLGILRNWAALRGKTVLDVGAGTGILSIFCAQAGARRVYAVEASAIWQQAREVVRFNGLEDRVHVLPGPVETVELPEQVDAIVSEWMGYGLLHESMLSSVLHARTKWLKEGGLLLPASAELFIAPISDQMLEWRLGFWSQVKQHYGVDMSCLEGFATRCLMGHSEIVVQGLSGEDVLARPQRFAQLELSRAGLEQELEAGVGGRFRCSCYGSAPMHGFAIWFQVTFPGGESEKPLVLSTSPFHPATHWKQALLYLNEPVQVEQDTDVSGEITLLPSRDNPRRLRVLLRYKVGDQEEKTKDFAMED
# Chain of PRMT8 (Q9NR22 whole entry): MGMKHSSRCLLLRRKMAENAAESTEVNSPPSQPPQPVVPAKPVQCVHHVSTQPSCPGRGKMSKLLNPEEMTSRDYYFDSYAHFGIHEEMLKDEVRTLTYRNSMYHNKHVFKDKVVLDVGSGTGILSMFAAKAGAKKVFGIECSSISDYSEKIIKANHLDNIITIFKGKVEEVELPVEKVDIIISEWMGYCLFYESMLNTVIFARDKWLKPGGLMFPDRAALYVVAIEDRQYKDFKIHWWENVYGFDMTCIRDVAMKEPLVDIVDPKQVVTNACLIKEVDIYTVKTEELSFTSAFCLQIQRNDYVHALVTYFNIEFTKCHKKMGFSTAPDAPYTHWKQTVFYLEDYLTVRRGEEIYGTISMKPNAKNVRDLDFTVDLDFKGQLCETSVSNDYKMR
# Chain of SETD2 (Q9BYW2 whole entry): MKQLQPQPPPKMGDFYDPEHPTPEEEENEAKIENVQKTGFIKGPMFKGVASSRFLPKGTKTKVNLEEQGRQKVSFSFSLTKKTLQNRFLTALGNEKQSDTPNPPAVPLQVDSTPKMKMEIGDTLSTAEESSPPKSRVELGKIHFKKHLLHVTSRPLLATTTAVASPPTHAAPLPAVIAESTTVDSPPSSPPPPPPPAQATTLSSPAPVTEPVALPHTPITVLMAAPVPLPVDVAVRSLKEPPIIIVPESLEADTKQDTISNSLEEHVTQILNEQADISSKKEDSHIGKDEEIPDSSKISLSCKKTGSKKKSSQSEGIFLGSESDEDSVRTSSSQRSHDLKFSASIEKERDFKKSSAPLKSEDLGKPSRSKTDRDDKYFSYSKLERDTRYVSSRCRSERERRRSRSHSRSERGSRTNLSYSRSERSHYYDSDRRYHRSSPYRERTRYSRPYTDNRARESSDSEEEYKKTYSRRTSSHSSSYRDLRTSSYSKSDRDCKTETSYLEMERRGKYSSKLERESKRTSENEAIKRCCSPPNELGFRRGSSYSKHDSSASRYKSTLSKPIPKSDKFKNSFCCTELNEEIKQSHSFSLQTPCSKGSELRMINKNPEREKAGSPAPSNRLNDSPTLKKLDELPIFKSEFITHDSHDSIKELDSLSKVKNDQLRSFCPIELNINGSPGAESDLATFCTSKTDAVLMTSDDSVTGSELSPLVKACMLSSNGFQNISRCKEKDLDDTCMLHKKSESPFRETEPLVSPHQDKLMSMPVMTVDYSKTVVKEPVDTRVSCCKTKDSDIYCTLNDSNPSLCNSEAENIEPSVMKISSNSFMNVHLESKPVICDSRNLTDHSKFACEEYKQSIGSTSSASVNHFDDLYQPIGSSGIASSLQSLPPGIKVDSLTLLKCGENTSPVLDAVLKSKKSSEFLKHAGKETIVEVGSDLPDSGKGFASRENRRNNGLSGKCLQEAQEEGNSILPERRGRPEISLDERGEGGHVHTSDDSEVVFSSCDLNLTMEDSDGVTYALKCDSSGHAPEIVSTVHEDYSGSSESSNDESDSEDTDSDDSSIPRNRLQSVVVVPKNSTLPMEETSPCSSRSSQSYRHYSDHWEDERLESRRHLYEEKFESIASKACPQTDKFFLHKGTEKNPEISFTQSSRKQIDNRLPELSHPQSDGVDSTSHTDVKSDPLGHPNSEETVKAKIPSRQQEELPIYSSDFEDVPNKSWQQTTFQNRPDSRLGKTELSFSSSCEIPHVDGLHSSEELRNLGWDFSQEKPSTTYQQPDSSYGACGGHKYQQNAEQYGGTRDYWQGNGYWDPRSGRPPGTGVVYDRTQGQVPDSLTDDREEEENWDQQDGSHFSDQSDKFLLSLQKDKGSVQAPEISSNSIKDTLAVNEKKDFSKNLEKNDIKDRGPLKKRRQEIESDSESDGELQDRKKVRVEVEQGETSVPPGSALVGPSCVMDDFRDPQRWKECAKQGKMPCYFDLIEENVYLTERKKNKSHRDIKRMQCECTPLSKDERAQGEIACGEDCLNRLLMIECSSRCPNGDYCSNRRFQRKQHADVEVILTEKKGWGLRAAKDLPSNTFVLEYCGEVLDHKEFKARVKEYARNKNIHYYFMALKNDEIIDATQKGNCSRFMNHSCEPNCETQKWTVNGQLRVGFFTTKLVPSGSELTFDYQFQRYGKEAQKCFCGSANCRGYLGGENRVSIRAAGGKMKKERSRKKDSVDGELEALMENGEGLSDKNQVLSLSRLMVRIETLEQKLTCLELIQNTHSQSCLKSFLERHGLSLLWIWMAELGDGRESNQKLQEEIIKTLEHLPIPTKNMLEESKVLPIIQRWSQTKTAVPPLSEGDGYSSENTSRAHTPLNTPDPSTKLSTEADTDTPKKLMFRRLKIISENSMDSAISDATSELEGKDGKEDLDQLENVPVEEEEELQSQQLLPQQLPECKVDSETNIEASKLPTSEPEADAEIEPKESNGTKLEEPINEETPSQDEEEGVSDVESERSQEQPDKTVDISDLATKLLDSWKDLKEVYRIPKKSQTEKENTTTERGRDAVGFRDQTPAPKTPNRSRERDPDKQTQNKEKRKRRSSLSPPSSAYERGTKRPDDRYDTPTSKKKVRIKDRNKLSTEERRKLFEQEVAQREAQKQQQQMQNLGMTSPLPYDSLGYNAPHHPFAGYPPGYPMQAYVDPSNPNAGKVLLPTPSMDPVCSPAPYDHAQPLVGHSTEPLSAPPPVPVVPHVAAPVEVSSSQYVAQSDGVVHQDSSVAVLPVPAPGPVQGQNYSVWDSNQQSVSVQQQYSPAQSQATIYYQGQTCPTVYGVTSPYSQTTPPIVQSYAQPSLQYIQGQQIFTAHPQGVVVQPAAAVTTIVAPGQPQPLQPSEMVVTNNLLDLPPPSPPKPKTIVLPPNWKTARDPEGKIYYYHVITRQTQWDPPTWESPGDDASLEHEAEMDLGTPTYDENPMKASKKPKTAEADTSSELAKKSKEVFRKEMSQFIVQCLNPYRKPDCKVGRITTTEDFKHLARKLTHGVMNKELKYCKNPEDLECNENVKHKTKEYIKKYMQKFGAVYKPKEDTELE
structure (smiles),measurement,setting,value
Nc1ncnc2c1ncn2[C@@H]1O[C@H](CSCc2ccc(Cl)cc2)[C@@H](O)[C@H]1O [NSC620333],activity at 10 µM,[1]; [13],100 ± 3%
same,activity at 10 µM,[1]; [14],97%
same,activity at 10 µM,[1]; [15],99%
same,activity at 10 µM,[1]; [16],103%
same,activity at 10 µM,[2]; [13],93 ± 9%
same,activity at 10 µM,[2]; [14],103%
same,activity at 10 µM,[2]; [15],90%
same,activity at 10 µM,[2]; [16],86%
same,activity at 10 µM,[3]; [13],96 ± 4%
same,activity at 10 µM,[3]; [14],99%
same,activity at 10 µM,[3]; [15],91%
same,activity at 10 µM,[3]; [16],97%
same,activity at 10 µM,[4]; [13],105 ± 8%
same,activity at 10 µM,[4]; [14],113%
same,activity at 10 µM,[4]; [15],97%
same,activity at 10 µM,[4]; [16],104%
same,IC50,[5]; RNMT,8.6 ± 1.3 µM
same,Hill Slope,[5]; RNMT IC50 curve,-1.5
same,IC50,"[6]; IC50 (µM), nsp14 MTase activity, high-throughput screening follow-up",5 µM
same,IC50,"[6]; IC50, at Km of both SAM and RNA substrates, mean ± SD, n = 3",5.3 ± 1 µM
same,mechanism of action with respect to RNA substrate,"[6]; IC50 at varying RNA (31 to 500 nM), fixed SAM 1.25 µM",noncompetitive
same,mechanism of action with respect to SAM,"[6]; IC50 at varying SAM (0.15 to 2.5 µM), fixed RNA 0.25 µM",SAM competitive
same,"inhibition of nsp14, batch retesting","[6]; custom-ordered, highly purified (>99%) sample",more pronounced inhibition
same,inhibition at 100 µM,[6]; read-out: nsp14 Inhibition % (100µM) Exp 1,100%
same,inhibition at 100 µM,[6]; read-out: nsp14 Inhibition % (100µM) Exp 2,99%
same,activity at 10 µM,[7]; [13],63 ± 7%
same,activity at 10 µM,[7]; [14],69%
same,activity at 10 µM,[7]; [15],64%
same,activity at 10 µM,[7]; [16],55%
same,activity at 10 µM,[8]; [13],103 ± 7%
same,activity at 10 µM,[8]; [14],108%
same,activity at 10 µM,[8]; [15],96%
same,activity at 10 µM,[8]; [16],106%
same,activity at 10 µM,[9]; [13],96 ± 3%
same,activity at 10 µM,[9]; [14],97%
same,activity at 10 µM,[9]; [15],99%
same,activity at 10 µM,[9]; [16],93%
same,activity at 10 µM,[10]; [13],103 ± 4%
same,activity at 10 µM,[10]; [14],99%
same,activity at 10 µM,[10]; [15],103%
same,activity at 10 µM,[10]; [16],107%
same,activity at 10 µM,[11]; [13],62 ± 5%
same,activity at 10 µM,[11]; [14],57%
same,activity at 10 µM,[11]; [15],66%
same,activity at 10 µM,[11]; [16],64%
same,activity at 10 µM,[12]; [13],96 ± 5%
same,activity at 10 µM,[12]; [14],101%
same,activity at 10 µM,[12]; [15],90%
same,activity at 10 µM,[12]; [16],98%
